Measured values published in patent US7074768B2, “Modified protein kinase A-specific oligonucleotides and methods of their use” (Idera Pharmaceuticals, Inc., priority 1995, dated 2006).

How the values were obtained:
[1] = tested on: 1A9PTX10 human ovarian cancer cells; assay: Soft agar growth of 1A9PTX10 cells; assay type: cell-based
Description: Cell lines. The 1A9PTX10 cell line, a paclitaxel (PTX)-resistant clone of the human ovarian carcinoma cell line 1A9, was isolated by exposing 1A9 cells to 5 ng/ml PTX in the presence of 5 μg/ml verapamil, a P glicoprotein antagonist. 1A9PTX10 cells were kindly provided by Dr. Giannakakou, NCI Bethesda, Md., USA. Cells were maintained in RPMI medium supplemented with 10% heat-inactivated FBS, 20 mM HEPES, pH 7.4, penicillin (100 UI/ml), streptomycin (100 μg/ml) and 4 mM glutamine (ICN, Irvine, UK) 15 ng/ml PTX and 5 μg/ml verapamil in a humified atmosphere of 95% air and 5% CO2 at 37° C. 7 days before experiments were performed, PTX and verapamil were removed from culture medium.
Soft agar growth. Cells (10^4 cells/well) were seeded in 0.5 ml of 0.3% Difco Noble agar (Difco, Detroit, Mich.) supplemented with complete culture medium. This suspension was layered over 0.5 ml of 0.8% agar-medium base layer in 24 multiwell cluster dishes (Becton Dickinson) and treated with various concentrations of HYB 165 or HYB508 every 48 hours for three times. After 12 days the cells were stained with nitroblue tetrazolium (Sigma, St. Louis, Mo.) and colonies larger than 0.05 mm were counted.

[2] = tested on: OVCAR-3 ovarian cancer cells; assay: Soft agar growth of OVCAR-3 cells; assay type: cell-based, human
Description: Cell lines. OVCAR human ovarian cancer cells were purchased from American Type Culture Collection (Rockville, Md., USA). Cells were maintained in DMEM and HAM'S F-12 (1:1) supplemented with 10% heat-inactivated FBS, 20 mM HEPES, pH 7.4, penicillin (100 UI/ml), streptomycin (100 μg/ml) and 4 mM glutamine (ICN, Irvine, UK) in a humified atmosphere of 95% air and 5% CO2 at 37° C.
Soft agar growth. Cells (10^4 cells/well) were seeded in 0.5 ml of 0.3% Difco Noble agar (Difco, Detroit, Mich.) supplemented with complete culture medium. This suspension was layered over 0.5 ml of 0.8% agar-medium base layer in 24 multiwell cluster dishes (Becton Dickinson) and treated with various concentrations of HYB 165 or HYB295 every 48 hours for three times. After 12 days the cells were stained with nitroblue tetrazolium (Sigma, St. Louis, Mo.) and colonies larger than 0.05 mm were counted.

[3] = tested on: TGFα; assay: Histochemical analysis of GEO tumors: TGFα; assay type: in vivo; conditions: single agent, after two cycles
Source text: Tumor specimens from the different groups of mice were examined by histochemical analysis at different time points to evaluate the expression of a variety of biological parameters.
TGFα and AR are growth factors which bind to EGFR and control human colon cancer growth through autocrine and paracrine mechanisms (F. Ciardiello and G. Tortora, Clin. Cancer Res. 4:821–828 (1998); D. S. Salomon, Crit. Rev. Oncol. Hematol. 19:183–232 (1995)).

[4] = tested on: p27; assay: Histochemical analysis of GEO tumors: p27; assay type: in vivo
Source text: Tumor specimens from the different groups of mice were examined by histochemical analysis at different time points to evaluate the expression of a variety of biological parameters. […] No other treatment was able to affect RIα expression.
Loda et al. (Nature Medicine 3:231–234 (1997)) discloses that the cyclin-dependent kinase (CDK) inhibitor p27 is […] related to cell entry into S phase and proliferation and that reduction of its expression correlates with poor prognosis in colon cancer patients.

[5] = tested on: Factor VIII related antigen; assay: Tumor-induced neovascularization (anti-Factor VIII related antigen immunohistochemistry); assay type: in vivo
Source text: In recent years, the critical role of tumor-induced neovascularization in neoplastic development, progression and metastasis has been elucidated (J. I. Fokman, In: J. Mendelsohn et al., eds., The Molecular Basis of Cancer, pp 206–232, Philadelphia: W B Saunders (1995) . A reliable histologic estimate of novel blood vessels on tumor specimens is the microvessel count (MVC) in the most intense areas of neovascularization. In the present study, tumor-induced neovascularization was quantified by immunohistochemistry using an anti-Factor VIII related antigen monoclonal antibody (N. Weidner, Breast Cancer Res. Treat., 36:169–180 (1995)).

Substance: HYB 165: Hybrid 18-mer mixed backbone antisense to PKA RIα, GCGUGCCTCCTCACUGGC (SEQ ID NO:4), 2-O-methyl ribonucleotides at 5′ and 3′ ends (sugars by position and backbone not given here; 2'-O-methyl ribonucleotides at both ends, mixed backbone)
- inhibition of cell growth ([1]; 0.1 μM): approximately 5%
- inhibition of cell growth ([1]; 0.5 μM): about 43%
- inhibition of cell growth ([1]; 1 μM): about 70%
- inhibition of cell growth ([1]; 2.5 μM): over 85%
- inhibition of cell growth ([2]; 0.1 μM): approximately 25%
- inhibition of cell growth ([2]; 0.5 μM): about 58%
- inhibition of cell growth ([2]; 1 μM): about 75%
- inhibition of cell growth ([2]; 2.5 μM): about 95%
- expression of TGFα [3]: inhibited the expression of TGF α and AR
- p27 expression ([4]; single agent): able to increase p27 expression
- increase in intensely positive cell staining for p27 ([4]; taxol and antisense RIα in combination): 2.5 fold
- vessel formation ([5]; combined treatment with taxol and HYB 165): completely suppressed vessel formation in GEO tumors
- inhibition of staining (microvessel count) ([5]; single agent, vs untreated mice or scramble MBO): about 80%
